For the experiment, the system named is SW620 xenografts tumor model. Put plainly: SW620 xenograft model in vivo. Particulars: nude mice, 20 mg/kg intraperitoneal every 2 days, start about 100 mm^3. The protocol: In view of potent cox-2 selective inhibitory activity and anti-colon cancer proliferation activity in vitro, compound 4b was further evaluated for anti-colon cancer activity in vivo. SW620 cells (5 × 10^6) were subcutaneously injected into the rightwing nude mice to establish a xenograft model. […]. Intraperitoneal administration was performed every 2 days and tumor volume changes were recorded for 12 consecutive days. […]. After 12 days of treatment, the tumor volumes of the two treatment groups were 43.71 mm^3 and 51.69 mm^3, respectively. Finally, the tumors of each group were removed and weighed to calculate the ratio of tumor weight to body weight. […] In contrast, body weight increased slightly in the vehicle group at the later stage of treatment (Figure 5C). […] This series of representative compounds 4b, as a selective COX-2 inhibitor for the targeted therapy of colon cancer, had prominent research prospect.
Nude mice aged 6-8 weeks were purchased from the model animal research center of nanjing university and bred in a specific non-pathogenic environment. A xenograft model was established by subcutaneous injection of SW620 cells […] DMEM into the right wing (18–22 g) of nude mice. […]. Vehicle treatment groups were treated with polyethylene glycol (containing 1% DMSO). […] After administration, weighed every two days and measured tumor volume with a vernier caliper. […]

SMILES strings stand for the structures.

For the compound `Cc1ccc(-c2cc(C(F)(F)F)nn2-c2ccc(S(N)(=O)=O)cc2)cc1` [Celecoxib, reference compound], the “tumor volume after 12 days of treatment” value is 51.69 mm^3.

For the origin of these results see publication PMC6539903 (Molecules, 2019).
